Reference: PubChem BioAssay AID256 (DTP/NCI, 2004)
Values joined by “and” are separate entries in the source; they are usually repeats but may differ in a detail not shown here. Equal values may be shown once. Toxic doses and inconclusive results are not listed. Rule for the calls: active = survival T/C of 150% or more; inactive = T/C below 125% in these data.

Tested on: CD2F1 mice, L1210 leukemia ip, survival T/C
Assay: NCI In Vivo Anticancer Drug Screen. Data for tumor model L1210 Leukemia (intraperitoneal) in CD2F1 (CDF1) mice
Conditions: higher = longer survival
How it was run: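 Read-out first: treated-group measurement over vehicle-control measurement, expressed as a ratio. Animals bore a transplanted tumor line and were dosed with compound or vehicle.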

[1] = endpoint: mean survival time, dose: 100.0 mg/kg/injection, schedule: Q04DX002 (ip), vehicle: saline with Tween-80
[2] = endpoint: mean survival time, dose: 200.0 mg/kg/injection, schedule: Q04DX002 (ip), vehicle: saline with Tween-80
[3] = endpoint: mean survival time, dose: 400.0 mg/kg/injection, schedule: Q04DX002 (ip), vehicle: saline with Tween-80
[4] = endpoint: mean survival time, dose: 100.0 mg/kg/injection, schedule: Q01DX009 (ip), vehicle: saline with Tween-80
[5] = endpoint: mean survival time, dose: 50.0 mg/kg/injection, schedule: Q01DX009 (ip), vehicle: saline
[6] = endpoint: mean survival time, dose: 100.0 mg/kg/injection, schedule: Q01DX009 (ip), vehicle: saline
[7] = endpoint: mean survival time, dose: 100.0 mg/kg/injection, schedule: Q04DX003 (ip), vehicle: saline with Tween-80
[8] = endpoint: mean survival time, dose: 200.0 mg/kg/injection, schedule: Q04DX003 (ip), vehicle: saline with Tween-80
[9] = endpoint: mean survival time, dose: 400.0 mg/kg/injection, schedule: Q04DX003 (ip), vehicle: saline with Tween-80
[10] = endpoint: mean survival time, dose: 100.0 mg/kg/injection, schedule: Q01DX001 (ip), vehicle: saline with Tween-80
[11] = endpoint: mean survival time, dose: 200.0 mg/kg/injection, schedule: Q01DX001 (ip), vehicle: saline with Tween-80
[12] = endpoint: mean survival time, dose: 400.0 mg/kg/injection, schedule: Q01DX001 (ip), vehicle: saline with Tween-80

Measured: T/C

O=C(c1ccccc1)c1cc(-c2ccccc2)nc2ccccc2c2ccccc2[nH]1
inactive: endpoint: mean survival time, dose: 100.0 mg/kg/injection, schedule: Q01DX001 (ip), vehicle: Klucel (hydroxypropylcellulose) (HPC) 93 % of control | endpoint: mean survival time, dose: 200.0 mg/kg/injection, schedule: Q01DX001 (ip), vehicle: Klucel (hydroxypropylcellulose) (HPC) 91 % of control | endpoint: mean survival time, dose: 400.0 mg/kg/injection, schedule: Q01DX001 (ip), vehicle: Klucel (hydroxypropylcellulose) (HPC) 100 % of control

COc1c(C)c2c(c(O)c1C/C=N\O)C(=O)OC2
inactive: [1] 100 % of control | [2] 100 % of control | [3] 100 % of control

CCC(C)[Se][Se]C(C)CC (centres undefined)
inactive: endpoint: mean survival time, dose: 25.0 mg/kg/injection, schedule: Q04DX003 (ip), vehicle: saline with Tween-80 93 % of control

OC(C=C(C(F)(F)F)C(F)(F)F)c1cccs1 (centres undefined)
inactive: [4] 95 % of control

CN(N=O)C(=O)NCC1OC(OC2(CO)OC(CNC(=O)N(C)N=O)C(O)C2O)C(O)C(O)C1O (centres undefined)
inactive: [5] 119 % of control | [6] 122 % of control | endpoint: mean survival time, dose: 133.0 mg/kg/injection, schedule: Q01DX009 (ip), vehicle: saline 107 % of control

O=C(OC(c1ccccc1)(C(F)(F)F)C(F)(F)F)c1ccccc1Sc1ccccc1
inactive: [7] 98 % of control | [8] 93 % of control | [9] 93 % of control

Oc1cc2c3c(c1)c1cc4c(cc1c[n+]3CC2)OCO4
inactive: endpoint: mean survival time, dose: 3.13 mg/kg/injection, schedule: Q01DX009 (ip), vehicle: other 115 % of control | endpoint: mean survival time, dose: 3.13 mg/kg/injection, schedule: Q01DX009 (ip), vehicle: water 124 % of control | endpoint: mean survival time, dose: 12.5 mg/kg/injection, schedule: Q01DX009 (ip), vehicle: water 122 % of control | endpoint: mean survival time, dose: 25.0 mg/kg/injection, schedule: Q01DX009 (ip), vehicle: other 115 % of control

CC1OC(n2cc(C(N)=O)c3c(N)ncnc32)C(O)C1O (centres undefined)
inactive: endpoint: mean survival time, dose: 12.5 mg/kg/injection, schedule: Q01DX009 (ip), vehicle: saline 103 % of control | endpoint: mean survival time, dose: 25.0 mg/kg/injection, schedule: Q01DX009 (ip), vehicle: saline 103 % of control | [5] 103 % of control | [6] 105 % of control

CCCC(=O)Nc1ccc(S(=O)(=O)Nc2ccc(S(=O)(=O)N3CCOCC3)cc2)cc1
inactive: [10] 103 % of control | [11] 92 % of control | [12] 94 % of control

Nc1ncnc(N)c1N=O
inactive: [7] 96 % of control | [8] 89 % of control

O=[N+]([O-])c1ccc2c([N+](=O)[O-])cc(O)cc2c1
inactive: [10] 95 % of control | [4] 96 % of control | [11] 105 % of control | endpoint: mean survival time, dose: 200.0 mg/kg/injection, schedule: Q01DX009 (ip), vehicle: saline with Tween-80 96 % of control | [12] 100 % of control | endpoint: mean survival time, dose: 400.0 mg/kg/injection, schedule: Q01DX009 (ip), vehicle: saline with Tween-80 98 % of control

O=S(=O)(CC(I)c1ccccc1)c1ccccc1 (centres undefined)
inactive: endpoint: mean survival time, dose: 75.0 mg/kg/injection, schedule: Q01DX009 (ip), vehicle: saline 99 % of control | endpoint: mean survival time, dose: 150.0 mg/kg/injection, schedule: Q01DX009 (ip), vehicle: saline 91 % of control | endpoint: mean survival time, dose: 300.0 mg/kg/injection, schedule: Q01DX009 (ip), vehicle: saline 92 % of control

COc1ccc(CCNC(=S)NN)cc1OC
inactive: endpoint: mean survival time, dose: 25.0 mg/kg/injection, schedule: Q04DX002 (ip), vehicle: saline with Tween-80 106 % of control | endpoint: mean survival time, dose: 50.0 mg/kg/injection, schedule: Q04DX002 (ip), vehicle: saline with Tween-80 95 % of control | [1] 114 % of control | [2] 103 % of control

CCCCNC(=O)Nc1ccc(Cl)cc1
inactive: [10] 88 % of control | [11] 86 % of control | [12] 88 % of control

COc1ccc(C(C)O)cc1 (centres undefined)
inactive: [1] 104 % of control | [2] 93 % of control | [3] 97 % of control

CCC(C)(O)C(C)N(C)C1CCCCC1 (centres undefined)
inactive: endpoint: mean survival time, dose: 100.0 mg/kg/injection, schedule: Q04DX003 (ip), vehicle: saline 97 % of control and 100 % of control | endpoint: mean survival time, dose: 200.0 mg/kg/injection, schedule: Q04DX003 (ip), vehicle: saline 100 % of control and 97 % of control

Nc1ncnc(N)c1NC(=O)c1ccc(Cl)c([N+](=O)[O-])c1
inactive: [7] 94 % of control | [8] 93 % of control | [9] 88 % of control

COC(=O)Nc1cccc(-c2nc3ccc(NC(=O)OC)cc3c(=O)n2-c2ccccc2)c1
inactive: endpoint: mean survival time, dose: 50.0 mg/kg/injection, schedule: Q01DX009 (ip), vehicle: Klucel (hydroxypropylcellulose) (HPC) 114 % of control | endpoint: mean survival time, dose: 100.0 mg/kg/injection, schedule: Q01DX009 (ip), vehicle: Klucel (hydroxypropylcellulose) (HPC) 91 % of control | endpoint: median survival time, dose: 50.0 mg/kg/injection, schedule: Q04DX003 (ip), vehicle: saline with Tween-80 101 % of control | endpoint: median survival time, dose: 100.0 mg/kg/injection, schedule: Q04DX003 (ip), vehicle: saline with Tween-80 103 % of control | endpoint: median survival time, dose: 200.0 mg/kg/injection, schedule: Q04DX003 (ip), vehicle: saline with Tween-80 100 % of control

COc1ccccc1/C=C/c1ccnc2ccccc12
inactive: [6] 98 % of control | endpoint: mean survival time, dose: 200.0 mg/kg/injection, schedule: Q01DX009 (ip), vehicle: saline 95 % of control | endpoint: mean survival time, dose: 400.0 mg/kg/injection, schedule: Q01DX009 (ip), vehicle: saline 96 % of control

O=S(=O)(c1ccccc1)C(Cl)Cl
inactive: endpoint: mean survival time, dose: 100.0 mg/kg/injection, schedule: Q04DX003 (ip), vehicle: other 95 % of control | endpoint: mean survival time, dose: 200.0 mg/kg/injection, schedule: Q04DX003 (ip), vehicle: other 100 % of control | endpoint: mean survival time, dose: 400.0 mg/kg/injection, schedule: Q04DX003 (ip), vehicle: other 100 % of control

CC(C(=O)O)C1CCC2(C)CCC(=O)C(C)(Cl)C2(O)C1=O (centres undefined)
inactive: [1] 96 % of control | [2] 100 % of control | [3] 100 % of control

COC1=N/C=C/C=C\C/C=C/C1
inactive: endpoint: median survival time, dose: 50.0 mg/kg/injection, schedule: Q04DX002 (ip), vehicle: saline with Tween-80 111 % of control | endpoint: median survival time, dose: 100.0 mg/kg/injection, schedule: Q04DX002 (ip), vehicle: saline with Tween-80 88 % of control | endpoint: median survival time, dose: 200.0 mg/kg/injection, schedule: Q04DX002 (ip), vehicle: saline with Tween-80 100 % of control | endpoint: median survival time, dose: 400.0 mg/kg/injection, schedule: Q04DX002 (ip), vehicle: saline with Tween-80 88 % of control

CN(C)CC[CH2][Sn]([CH3])([CH3])[CH3]
inactive: endpoint: mean survival time, dose: 3.12 mg/kg/injection, schedule: Q01DX009 (ip), vehicle: saline with Tween-80 104 % of control | endpoint: mean survival time, dose: 6.25 mg/kg/injection, schedule: Q01DX009 (ip), vehicle: saline with Tween-80 100 % of control | endpoint: mean survival time, dose: 12.5 mg/kg/injection, schedule: Q01DX009 (ip), vehicle: saline with Tween-80 90 % of control

OC1(C#CCC2(O)CCCCC2)CCCCC1
inactive: [10] 91 % of control | [11] 91 % of control | [12] 93 % of control

Nc1ccccc1-c1ccccc1N
inactive: endpoint: mean survival time, dose: 100.0 mg/kg/injection, schedule: Q04DX002 (ip), vehicle: saline 87 % of control

O=C(O)C1=C(C(=O)O)C2C3CC4C(C13)C42
inactive: [7] 101 % of control | [8] 100 % of control | [9] 88 % of control
